Assay results taken from patent US6177438A, “Morphinan derivatives and pharmaceutical use thereof” (priority 1993, dated 2001).
Counter-ions that a name gives are not always drawn. Like-named read-outs stand apart in the source and are kept apart here.

Legend:
δ receptor = target: T1, δ receptor (Mus musculus, UniProt P32300); design: species or system male ddy mouse
T1 construct: The vas deferens extracted from the animal was suspended in a Magnus tube; from tissue; host or cells: mouse (male ddy) vas deferens

[1] = system: acetic acid-induced writhing in ddy mice; assay: animal or person; assay type: in vivo, 5 week old ddy mice; settings: for ED50: s.c. 15 minutes before acetic acid; for analgesic activity: s.c., in words
Description: 5 week old ddy mice were used in this test. After intraperitoneal administration of 0.1 ml of 0.6% aqueous acetic acid per 10 g of body weight, the number of writhing reactions that occurred in 10 minutes starting 10 minutes after administration was evaluated for the indicator. The test drug was administered subcutaneously into the backs of the animals 15 minutes before administration of acetic acid.

κ receptor = target: T2, κ receptor (Mus musculus, UniProt P33534); assay: Opioid activity test using an extracted mouse vas deferens preparation, Ke with norBNI; design: species or system male ddy mouse; settings: for receptor selectivity of agonist (κ): in words; for Ke, norBNI: κ, norBNI added
T2 construct: from tissue; host or cells: mouse (male ddy) vas deferens
Description: (§1) A male ddy mouse was used in this test. The vas deferens extracted from the animal was suspended in a Magnus tube filled with Krebes-Henseleit solution (NaCl 118 mM; KCl 4.7 mM; CaCl2 2.5 mM; KH2 PO4 1.1 mM; NaHCO3 25 mM; Glucose 11 mM) warmed to 37° C. and ventilated with 5% carbon dioxide and 95% oxygen. Electrical stimulus was performed at 0.1 Hz for 5.0 ms by means of ring-shaped platinum electrodes located above and below. Tissue contractions were recorded on a polygraph using an isometric transducer.
(§2) After adequately washing with nutrient solution and the contraction reaction stabilized, the μ agonist, naloxone, the δ agonist, NTI, or the κ agonist, norBNI, was added after which the test compound was again cumulatively added after roughly 20 minutes. The Ke value was calculated using the following calculation formula from the difference in the efficacies of both agonists.
(§3) Ke=[Conc. of added agonist]/(IC50 ratio-1)
(§4) IC50 ratio=IC50 in the presence of agonist/IC50 in the absence of agonist

[2] = system: extracted mouse vas deferens preparation; assay: Opioid activity test using an extracted mouse vas deferens preparation (suppression of electrically induced contractions); design: species or system male ddy mouse; settings: electrical stimulus 0.1 Hz, 37° C.
Description: as §1, §2

[3] = Diuretic action (urine output for 5 hours after physiological saline loading in rats); assay type: in vivo, male Wistar rats; settings: for ED (200% urine output) / ED (500% urine output): Rattus norvegicus, sc, 5 hours after saline 20 ml/kg p.o.; for ED (200% urine output): dose giving urine output of 200 (non-dosed group = 100); for ED (500% urine output): dose giving urine output of 500 (non-dosed group = 100); for Diuretic action (in words): s.c., from ED200 values
Description: 7-8 week old male Wistar rats were used in this test after prohibiting from drinking water for 1 hour before the start of testing. After discharging any urine accumulated in the bladder by gently stimulating the lower abdomens of the animals, the drug was administered subcutaneously. After 30 minutes, the animals were then forcibly given 20 ml/kg of physiological saline orally. The animals were placed in metabolic cages immediately after administration of the drug (2 animals/cage) and urine output for 5 hours after loading with physiological saline was measured. Drug efficacy was expressed in the form of those doses resulting in urine outputs of 200 and 500, respectively, when the urine output of a non-dosed group was taken to be 100. Those doses were expressed as the ED200 and ED500 values, respectively.

μ receptor = target: T3, μ receptor (Mus musculus, UniProt P42866); assay: Opioid activity test using an extracted mouse vas deferens preparation, Ke with naloxone; design: species or system male ddy mouse; settings: naloxone added
T3 construct: naloxone as mu antagonist (printed 'agonist')
Description: as §1, §2, §3, §4

[4] = mouse vas deferens, δ, NTI added
[5] = Mus musculus, sc, read-out: ED50

T2 sequence (P33534 whole entry): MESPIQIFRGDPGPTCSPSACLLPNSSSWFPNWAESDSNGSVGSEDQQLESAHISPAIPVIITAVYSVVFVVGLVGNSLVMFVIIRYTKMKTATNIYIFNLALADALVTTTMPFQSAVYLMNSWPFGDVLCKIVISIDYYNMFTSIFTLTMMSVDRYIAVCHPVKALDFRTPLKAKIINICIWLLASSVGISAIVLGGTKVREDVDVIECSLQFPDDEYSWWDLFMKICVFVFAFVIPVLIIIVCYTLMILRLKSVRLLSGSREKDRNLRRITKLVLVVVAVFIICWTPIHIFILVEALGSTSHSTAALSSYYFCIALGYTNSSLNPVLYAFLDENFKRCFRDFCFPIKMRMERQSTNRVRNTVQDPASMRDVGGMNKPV
T1 sequence (P32300 whole entry): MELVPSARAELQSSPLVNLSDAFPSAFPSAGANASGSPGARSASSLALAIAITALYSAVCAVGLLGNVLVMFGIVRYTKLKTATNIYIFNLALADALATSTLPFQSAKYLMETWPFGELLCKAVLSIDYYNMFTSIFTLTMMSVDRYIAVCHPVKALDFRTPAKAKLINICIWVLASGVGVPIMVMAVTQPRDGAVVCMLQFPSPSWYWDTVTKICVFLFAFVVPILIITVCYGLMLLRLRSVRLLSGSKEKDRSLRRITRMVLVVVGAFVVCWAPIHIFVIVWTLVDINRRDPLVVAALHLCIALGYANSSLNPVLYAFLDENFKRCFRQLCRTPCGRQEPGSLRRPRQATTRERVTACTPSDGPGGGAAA
T3 sequence (P42866 whole entry): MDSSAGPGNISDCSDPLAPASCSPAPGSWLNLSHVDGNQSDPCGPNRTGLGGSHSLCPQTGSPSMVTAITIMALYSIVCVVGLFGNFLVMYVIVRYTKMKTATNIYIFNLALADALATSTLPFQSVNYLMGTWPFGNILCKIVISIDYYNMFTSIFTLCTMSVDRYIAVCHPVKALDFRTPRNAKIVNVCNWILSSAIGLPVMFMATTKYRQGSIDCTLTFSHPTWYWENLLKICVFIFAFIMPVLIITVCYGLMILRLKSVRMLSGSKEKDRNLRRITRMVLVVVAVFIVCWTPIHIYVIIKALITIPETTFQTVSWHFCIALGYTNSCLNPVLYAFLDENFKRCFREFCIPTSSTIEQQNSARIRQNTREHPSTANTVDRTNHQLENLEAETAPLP

SMILES	Ke, NTI (δ receptor; [4]) [nM]	ED50 [1, 5] [µg/kg]	receptor selectivity of agonist (κ) (κ receptor)	Ke, norBNI (κ receptor) [nM]	IC50 [2] [nM]	ED (200% urine output) [3] [µg/kg]	ED (500% urine output) [3] [µg/kg]	Ke, Naloxone (μ receptor) [nM]	receptor selectivity of agonist (δ) (δ receptor; mouse vas deferens, in words)	analgesic activity [1]	Diuretic action (in words) [3]	Ke, NTI (δ receptor) [nM]	ED50 [1] [µg/kg]
COc1cccc(C#CC(=O)N(C)[C@@H]2CC[C@@]3(O)[C@H]4Cc5ccc(O)c6c5[C@@]3(CCN4CC3CC3)[C@H]2O6)c1.O=C(O)C(O)C(O)C(=O)O [Compound 173, 17-cyclopropylmethyl-3,14β-dihydroxy-4,5α-epoxy-6β-[N-methyl-3-(3-methoxyphenyl)propiolamido]morphinan tartrate]	21.3	11	selective agonists for κ receptors	0.11	0.02	27.5	1550	19.6					
CN(C(=O)COc1ccccc1)[C@H]1CC[C@@]2(O)[C@H]3Cc4ccc(O)c5c4[C@@]2(CCN3CC2CC2)[C@H]1O5 [Compound 38, 17-cyclopropylmethyl-3,14β-dihydroxy-4,5α-epoxy-6α-(N-methylphenoxyacetamido)morphinan.cndot.hydrochloride]	16.6	3.52	selective agonists for κ receptors	4.65	0.349	3.8	281	411					
CN(C(=O)/C=C/c1cccc([N+](=O)[O-])c1)[C@H]1CC[C@@]2(O)[C@H]3Cc4ccc(O)c5c4[C@@]2(CCN3CC2CC2)[C@H]1O5 [Compound 97, 17-cyclopropylmethyl-3,14β-dihydroxy-4,5α-epoxy-6α-(N-methyl-3-nitrocinnamamido)morphinan.cndot.phosphate]	2.92	1.9		13.9	0.247	4.5	93.9	163	selective agonists for δ receptors				
CN(C(=O)OCc1ccccc1)[C@H]1CC[C@@]2(O)[C@H]3Cc4ccc(O)c5c4[C@@]2(CCN3CC2CC2)[C@H]1O5 [Compound 42, 17-cyclopropylmethyl-3,14β-dihydroxy-4,5α-epoxy-6α-(N-methylbenzyloxycarbamido)morphinan.cndot.tartrate]	63.5	1.36	selective agonists for κ receptors	0.905	0.251	0.85	6.1	186		particularly strong analgesic activity	extremely strong diuretic action		
CCCCOC(=O)N(C)[C@H]1CC[C@@]2(O)[C@H]3Cc4ccc(O)c5c4[C@@]2(CCN3CC2CC2)[C@H]1O5 [Compound 47, 17-cyclopropylmethyl-4,5α-epoxy-3,14β-dihydroxy-6α-(N-methylbutyroxycarbamido)morphinan.cndot.tartrate]	10.4	0.52	selective agonists for κ receptors	0.140	0.439	1.6		63.5		particularly strong analgesic activity			
CN(C(=O)OCc1ccc([N+](=O)[O-])cc1)[C@H]1CC[C@@]2(O)[C@H]3Cc4ccc(O)c5c4[C@@]2(CCN3CC2CC2)[C@H]1O5 [Compound 43, 17-cyclopropylmethyl-3,14β-dihydroxy-4,5α-epoxy-6α-(N-methyl-4-nitrobenzyloxycarbamido)morphinan.cndot.hydrochloride]	22.5	5.5	selective agonists for κ receptors	5.31	0.65	0.54	4.4	409			extremely strong diuretic action		
CN(C(=O)CCCc1ccccc1)[C@@H]1CC[C@@]2(O)[C@H]3Cc4ccc(O)c5c4[C@@]2(CCN3CC2CC2)[C@H]1O5 [Compound 150, 17-cyclopropylmethyl-4,5α-epoxy-3,14β-dihydroxy-6β-(N-methyl-4-phenylbutanoylamido)morphinan tartrate]	55.6	35	selective agonists for κ receptors	0.303	1.67	42.9	762	137					
CN(C(=O)CCc1ccccc1)[C@H]1CC[C@@]2(O)[C@H]3Cc4ccc(O)c5c4[C@@]2(CCN3CC2CC2)[C@H]1O5 [Compound 22, 17-Cyclopropylmethyl-4,5α-epoxy-3,14β-dihydroxy-6α-(N-methyl-3-phenylpropionamido)morphinan.cndot.tartrate]	545	5.1	selective agonists for κ receptors	5.53	1.2	0.95	17	800			extremely strong diuretic action		
CN(C(=O)/C=C/c1ccoc1)[C@H]1CC[C@@]2(O)[C@H]3Cc4ccc(O)c5c4[C@@]2(CCN3CC2CC2)[C@H]1O5 [Compound 89, 17-cyclopropylmethyl-3,14β-dihydroxy-4,5α-epoxy-6α-[N-methyl-trans-3-(3-furyl)acrylamido]morphinan.cndot.tartrate]		4.71	selective agonists for κ receptors	0.85	0.0934	1.2	16.2	18.3				15.6	
CC(=O)Oc1ccc2c3c1O[C@H]1[C@H](N(C)C(=O)/C=C/c4cccc(C(F)(F)F)c4)CC[C@@]4(O)[C@@H](C2)N(CC2CC2)CC[C@]314 [Compound 141, 17-cyclopropylmethyl-3-acetoxy-14β-hydroxy-4,5α-epoxy-6β-(N-methyl-3-trifluoromethylcinnamamido)morphinan.cndot.tartrate]	184	10	selective agonists for κ receptors	1.39	0.16	31.9	3450	142					
CCCCOC(=O)N(C)[C@@H]1CC[C@@]2(O)[C@H]3Cc4ccc(O)c5c4[C@@]2(CCN3CC2CC2)[C@H]1O5 [Compound 59, 17-cyclopropylmethyl-3,14β-dihydroxy-4,5α-epoxy-6β-(N-methylbutyroxycarbamido)morphinan.cndot.tartrate]	47.3	2.8	selective agonists for κ receptors	0.151	1.14	10.5	2360	21.3					
CN(C(=O)CSc1ccccc1)[C@H]1CC[C@@]2(O)[C@H]3Cc4ccc(O)c5c4[C@@]2(CCN3CC2CC2)[C@H]1O5 [Compound 45, 17-cyclopropylmethyl-4,5α-epoxy-3,14β-dihydroxy-6α-(N-methylthiophenoxyacetamido)morphinan.cndot.tartrate]	135		selective agonists for κ receptors	0.416	0.185	8.1	857	26.5					3.8
CCCCCC(=O)N(C)[C@H]1CC[C@@]2(O)[C@H]3Cc4ccc(O)c5c4[C@@]2(CCN3CC2CC2)[C@H]1O5 [Compound 39, 17-cyclopropylmethyl-3,14β-dihydroxy-4,5α-epoxy-6α-(N-methylhexanamido)morphinan.cndot.tartrate]	99.3	8.8	selective agonists for κ receptors	1.01	0.568	4.1	228	89.9					
